In patent US20210128554A1, “ANTI-FLAVIVIRIDAE ACTIVITY OF ANTI-RETROVIRAL NON-NUCLEOSIDE (NNRTIS) AND NUCLEOSIDE REVERSE TRANSCRIPTASE INHIBITORS (NNRTIS)” (priority 2016, published 2021):

System: Zika virus
Assay: ZIKV copy numbers released by primary human fetal astrocytes treated with NNRTIs (Real-time Q-RT-PCR)
Type: cell-based
Settings: ZIKV 0.1 MOI, 5, 10, and 25 μM at 24, 48, 72 hrs, culture media at 96 hrs
Experimental: FIG. 6 is a graph showing that Zika virus replication is suppressed by antiretroviral HIV-1 non-nucleoside reverse transcriptase inhibitors (NNRTIs) in primary astrocytes: Primary human fetal astrocytes were plated in 6 well tissue culture dishes and infected with ZIKV at 0.1 MOI. At 24, 48, and 72 hrs post-infections, cells were treated with increasing concentrations of anti-retroviral non-nucleoside reverse transcriptase inhibitors Rilpivirine, Efavirenz, and Etravirine at 5, 10, and 25 μM concentrations. Culture media of the infected cells were collected at 96 hrs post-infections and subjected to Real-time Q-RT-PCR for the detection and quantification of ZIKV copy numbers released by infected cells.

## O=C1Nc2ccc(Cl)cc2[C@@](C#CC2CC2)(C(F)(F)F)O1 [Efavirenz]
  Zika virus replication (ZIKV copy numbers released by infected cells): suppressed

## Cc1cc(C#N)cc(C)c1Oc1nc(Nc2ccc(C#N)cc2)nc(N)c1Br [Etravirine]
  Zika virus replication (ZIKV copy numbers released by infected cells): suppressed
